Source: patent US20220151954A1, “TREATMENT OF SEBACEOUS GLAND DISORDERS” (priority 2019, published 2022)

Assays:
[1] = system: IL-1β secretion by U937 cells; assay: Inhibition of secretion of IL-1β by lipopolysaccharide-stimulated U937 cells (ELISA); assay type: cell-based
Method: (§1) U937 cells, were thawed and treated according to the manufacturer's instructions. The cultures were incubated for recovery at 37° C. with 5% CO2 until 70-80% confluency was reached (visual estimation). Then, approx. 0.3×10^6 ¢/mL (determined by counting) were seeded in 96 well plates containing 200 μL/well of complete growth medium. The cells were incubated at 37° C. with 5% CO2 until 60% confluency was reached (visual estimation, typically—after 48 hr).
(§2) After the cells had reached the required confluency, the medium was replaced with pre-prepared growth medium supplemented with 1 μg/mL of lipopolysaccharides, and the test components were added, at a final volume of 200 μL/well. The following control groups were also added: Naïve cells, vehicle control, stimulation control, stimulation vehicle control. A proper blank control was subtracted from the measurements.
(§3) The cells were incubated for 24 hr. at 37° C. with 5% CO2. After the incubation, the conditioned medium of the different treatment groups was collected under standardized conditions and centrifuged at 250×g for 5 min to remove particulates. Clear supernatants were frozen at −70° C. until cytokines analyses. The secretion levels of IL-1β and TNFα (a major inflammatory marker) were quantified by commercial ELISA.

[2] = system: PGE2 secretion by RAW 264.7 cells; assay: Secretion of PGE2 by LPS-stimulated RAW 264.7 cells; assay type: cell-based
Method: RAW 264.7 cells (approx. 2.5×10^5 ¢/ml, by counting) were seeded in 96 well plates containing 170 μl/well of complete growth medium. The cells were incubated at 37° C. with 5% CO2 for 24 hr. […] In addition, naïve cells, vehicle-treated cells, Stimulated Control, and Stimulated Vehicle Control served as negative controls. Dexamethasone served as a positive control for anti-inflammatory assay. A Blank control group was included in the assay.
The spent media from all test groups were collected under standardized conditions and centrifuged at 250 g for 5 min to remove particulates. Clear supernatants were frozen at −70° C. until analysis. The secretion levels of PGE2 (an important inflammatory marker) were determined.

[3] = system: TNFα secretion by U937 cells; assay: Inhibition of secretion of TNFα by lipopolysaccharide-stimulated U937 cells (ELISA); assay type: cell-based
Method: as §1, §2, §3

[4] = system: P. acnes; assay: Propionibacterium acnes growth inhibition (absorbance at 600 nm); assay type: cell-based
Method: A streak plate isolation technique was performed to isolate a single homogenous colony of P. acnes. A pinch of one colony was inoculated from agar plate into U-shape falcon tube containing 4 ml of broth media. Cultures were incubated at 37° C. in reduced oxygen-conditions for 72 hours. The cultures were then diluted and grown to mid-log phase (O.D. 0.5; 600 nm) for 3 hr.
The bacteria were incubated with the test components (cannabidiol and/or extract of C. asiatica) at different concentrations in triplicate at a final volume of 200 μl in an N-pre-flushed U shape 96-well plates for 3 hr. An additional blank control group was included (media w/o bacteria). Also, a negative (bacteria without test samples) control groups was included in the assay. In addition, combinations of the these components were tested (see Table 2).
The absorbance was recorded at 600 nm. The absorbance of the blank control was subtracted from all measurements. The change in bacterial number in response to increasing test sample concentrations was plotted.

[5] = system: human sebocytes; conditions: cited from earlier work
[6] = Homo sapiens, U-937, each component present at 10 μg/ml, 1 μg/mL lipopolysaccharides, 24 hr
[7] = cultured human sebocytes and human skin organ culture

## C=C(C)[C@@H]1CCC(C)=C[C@H]1c1c(O)cc(CCCCC)cc1O [Cannabidiol, cannabidiol]
[1]; [6]
  inhibition at 10 µg/mL: 28.4%
[1]; summary of Table 3
  effect on secretion of IL-1β (in words): attenuates
[2]; Mus musculus, RAW264.7, Sample 1: cannabidiol 1.25 μg/ml alone, RAW 264.7, LPS 12.5 ng/ml
  inhibition at 1.25 µg/mL: 1.9%
[2]; Mus musculus, RAW264.7, Sample 2: cannabidiol 2.5 μg/ml alone, RAW 264.7, LPS 12.5 ng/ml
  inhibition at 2.5 µg/mL: 24%
[2]; at a concentration of 2.5 μg/ml
  effect on secretion of PGE2 (in words): attenuates
[3]; [6]
  inhibition at 10 µg/mL: 48%
[3]; summary of Table 3
  effect on secretion of TNFα (in words): attenuates
[4]; Cutibacterium acnes, Sample 1: cannabidiol 1.25 μg/ml, C. asiatica 0, 3 hr
  inhibition at 1.25 µg/mL: -10.9%
[4]; Cutibacterium acnes, Sample 2: cannabidiol 2.5 μg/ml, C. asiatica 0, 3 hr
  inhibition at 2.5 µg/mL: 5.7%
[4]; summary of Table 2
  effect on growth of P. acnes (in words): neither cannabidiol nor extract of C. asiatica significantly inhibits growth
[5]; [7]
  effect on lipogenic actions of arachidonic acid, linoleic acid + testosterone (in words): inhibited the lipogenic actions
  effect on sebocyte proliferation (in words): suppressed sebocyte proliferation
[5]; human sebocytes
  anti-inflammatory action (in words): exerted complex anti-inflammatory actions
